# Results: PubChem BioAssay (NCI)
#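 Where inhibition never reached the appropriate level, the endpoint shown equals the highest concentration tested. Otherwise, values were interpolated linearly from a five-concentration, 48-hour dose response in 96-well plates. GI50 marks 50% less growth. Definition used: TGI = concentration required for complete inhibition of growth.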
# Key:
# Test in all cases: growth of human tumour cells (NCI), 48 h
# [1] = system: RXF 393 renal
# [2] = system: OVCAR-3 ovarian
# [3] = system: UACC-62 melanoma
# [4] = system: M14 melanoma
# [5] = system: MCF7 breast
# [6] = system: ACHN renal
# [7] = system: PC-3 prostate
# [8] = system: KM12 colon
# [9] = system: 786-0 renal
# [10] = system: DU-145 prostate
# [11] = system: SK-OV-3 ovarian
# [12] = system: MALME-3M melanoma
# [13] = system: UO-31 renal
# [14] = system: OVCAR-4 ovarian
# [15] = system: IGROV1 ovarian
# [16] = system: OVCAR-5 ovarian
# [17] = system: T-47D breast
# [18] = system: SF-539 CNS
# [19] = system: MDA-MB-435
# [20] = system: RPMI-8226 leukemia
# [21] = system: CAKI-1 renal
# [22] = system: LOX IMVI melanoma
# [23] = system: A549 NSCLC
# [24] = system: COLO 205 colon
# [25] = system: MOLT-4 leukemia
# [26] = system: SK-MEL-5 melanoma
# [27] = system: NCI-H226 lung
# [28] = system: A498 renal
# [29] = system: HOP-92 NSCLC
# [30] = system: NCI-H460 lung
# [31] = system: HCT-15 colon
# [32] = system: CCRF-CEM leukemia
# [33] = system: HCT-116 colon
# [34] = system: EKVX NSCLC
# [35] = system: SR leukemia
# [36] = system: BT-549 breast
# [37] = system: SW-620 colon
# [38] = system: HL-60(TB) leukemia
# [39] = system: OVCAR-8 ovarian
# [40] = system: TK-10 renal
# [41] = system: SK-MEL-2 melanoma
# [42] = system: SF-268 CNS
# [43] = system: K-562 leukemia
# [44] = system: SNB-19 CNS
# [45] = system: SK-MEL-28 melanoma
# [46] = system: NCI-H23 lung
# [47] = system: HT29 colon
# [48] = system: SNB-75 CNS
# [49] = system: SN12C renal
# [50] = system: SF-295 CNS
# [51] = system: MDA-MB-231 breast
# [52] = system: HS 578T breast
# [53] = system: HOP-62 NSCLC
# [54] = system: U251 CNS
# [55] = system: UACC-257 melanoma
# [56] = system: NCI/ADR-RES ovarian
# [57] = system: HCC-2998 colon
# [58] = system: NCI-H522 lung
smiles,measurement,setting,value
O=C(Nc1cccc(-c2nc(-c3ccc(NC(=O)c4cccnc4)cc3Cl)no2)c1)Nc1ccc(NC(=O)C2CC2)c(C(F)(F)F)c1,GI50,[1],0.247 µM
same,TGI,[1],0.741 µM
same,GI50,[2],0.315 µM
same,TGI,[2],1.1 µM
same,GI50,[3],0.317 µM
same,TGI,[3],1.57 µM
same,GI50,[4],0.307 µM
same,TGI,[4],1.28 µM
same,GI50,[5],0.228 µM
same,TGI,[5],1.22 µM
same,GI50,[6],2.07 µM
same,TGI,[6],13.2 µM
same,GI50,[7],0.226 µM
same,TGI,[7],0.79 µM
same,GI50,[8],0.376 µM
same,TGI,[8],1.75 µM
same,GI50,[9],0.994 µM
same,TGI,[9],3.11 µM
same,GI50,[10],0.435 µM
same,TGI,[10],4.21 µM
same,GI50,[11],1.76 µM
same,TGI,[11],3.89 µM
same,GI50,[12],0.24 µM
same,TGI,[12],0.808 µM
same,GI50,[13],1.61 µM
same,TGI,[13],5.45 µM
same,GI50,[14],0.565 µM
same,TGI,[14],1.83 µM
same,GI50,[15],0.258 µM
same,TGI,[15],0.83 µM
same,GI50,[16],0.446 µM
same,TGI,[16],1.71 µM
same,GI50,[17],0.535 µM
same,TGI,[17],2.4 µM
same,GI50,[18],0.226 µM
same,TGI,[18],0.655 µM
same,GI50,[19],0.126 µM
same,TGI,[19],0.381 µM
same,GI50,[20],0.303 µM
same,TGI,[20],1.1 µM
same,GI50,[21],0.437 µM
same,TGI,[21],1.8 µM
same,GI50,[22],0.174 µM
same,TGI,[22],0.388 µM
same,GI50,[23],0.429 µM
same,TGI,[23],4.76 µM
same,GI50,[24],0.38 µM
same,TGI,[24],1.61 µM
same,GI50,[25],0.288 µM
same,TGI,[25],1.02 µM
same,GI50,[26],0.381 µM
same,TGI,[26],1.4 µM
same,GI50,[27],0.562 µM
same,TGI,[27],1.96 µM
same,GI50,[28],0.161 µM
same,TGI,[28],1.89 µM
same,GI50,[29],0.522 µM
same,TGI,[29],1.33 µM
same,GI50,[30],0.343 µM
same,TGI,[30],1.13 µM
same,GI50,[31],0.784 µM
same,TGI,[31],5.62 µM
same,GI50,[32],0.27 µM
same,TGI,[32],1.9 µM
same,GI50,[33],0.303 µM
same,TGI,[33],1.28 µM
same,GI50,[34],0.997 µM
same,TGI,[34],5.11 µM
same,GI50,[35],0.0963 µM
same,TGI,[35],0.962 µM
same,GI50,[36],1.07 µM
same,TGI,[36],3.02 µM
same,GI50,[37],0.345 µM
same,TGI,[37],1.51 µM
same,GI50,[38],0.259 µM
same,TGI,[38],0.997 µM
same,GI50,[39],0.449 µM
same,TGI,[39],3.1 µM
same,GI50,[40],1.92 µM
same,TGI,[40],5.46 µM
same,GI50,[41],1.14 µM
same,TGI,[41],2.98 µM
same,GI50,[42],1.07 µM
same,TGI,[42],4.83 µM
same,GI50,[43],0.156 µM
same,TGI,[43],10.7 µM
same,GI50,[44],0.381 µM
same,TGI,[44],1.9 µM
same,GI50,[45],0.559 µM
same,TGI,[45],1.71 µM
same,GI50,[46],0.411 µM
same,TGI,[46],1.57 µM
same,GI50,[47],0.336 µM
same,TGI,[47],1.43 µM
same,GI50,[48],0.224 µM
same,TGI,[48],0.806 µM
same,GI50,[49],0.415 µM
same,TGI,[49],1.66 µM
same,GI50,[50],0.271 µM
same,TGI,[50],0.752 µM
same,GI50,[51],0.323 µM
same,TGI,[51],1.26 µM
same,GI50,[52],0.324 µM
same,TGI,[52],1.29 µM
same,GI50,[53],0.361 µM
same,TGI,[53],1.8 µM
same,GI50,[54],0.29 µM
same,TGI,[54],1.02 µM
same,GI50,[55],1.33 µM
same,TGI,[55],3.49 µM
same,GI50,[56],22.2 µM
same,TGI,[56],> 100 µM
same,GI50,[57],0.689 µM
same,TGI,[57],2.06 µM
same,GI50,[58],0.349 µM
same,TGI,[58],1.76 µM
